Source: patent EP1095650A1, “Double phase time-controlled release system” (Universiteit Leiden, priority 1999, dated 2001)

Assay: Dissolution / release profile of BAEE from the delivery system (USP XXIII dissolution paddle apparatus)
Type: physicochemical
Conditions: PBS pH 7.2, 37±1°C, 100 rpm
Procedure: The dissolution of a coated and a non-coated delivery system according to the present invention was investigated by using the standard USP XXIII dissolution paddle apparatus. The paddle speed was 100 rpm and the dissolution medium was phosphate buffer solution (PBS) pH 7.2 at 37±1°C. PBS was prepared according to the method of USP XXIII. Three replicates for each sample were tested at specific interval times and their mean percent release was calculated.
Two release patterns of example 1, showing the release profiles of BAEE from the system with and without a gelatin enteric coating (capsule) are depicted in Figures 6 and 7, respectively.
Data are expressed as mean ± standard deviation (SD, n=6). (Standard USP XXIII dissolution apparatus is used with Phosphate Buffer Solution (PBS) pH = 7.2 as a dissolution medium. Temperature was 37±1°C and paddle speed was 100 rpm).
Data are expressed as mean ±SD (n=6). (Standard USP XXIII dissolution apparatus is used with PBS pH = 7.2 as a dissolution medium. Temperature was 37±1°C and paddle speed was 100 rpm).

CCOC(=O)[C@H](CCCN=C(N)N)NC(=O)c1ccccc1 [BAEE, N-α-benzoyl-L-arginine ethylester]
lag time (system of Example 1 inserted in gelatin capsule and enteric-coated (Figure 7), compared with non-coated system): increased
amount of drug released after the lag time (system of Example 1 not inserted in gelatin capsule (Figure 6), within a short period of time): whole amount of drug is released
